According to patent publication EP4438030A1, “TERNARY ANTI-SPOT COMBINATION TO LIGHTEN SKIN” (E Grau Active Cosmetics, S.L.U., priority 2023, dated 2024):

Tested on: Normal human epidermal melanocytes
Conditions: melanocytes irradiated with ultraviolet light (2.5 J/cm2), 96 hours; mixture 0.0003% hydroxytyrosol, 0.00001% maslinic acid, 0.001% vitamin C (w/w); hydroquinone 10-8% (w/w)
Method: Normal human epidermal melanocytes were cultured in 48-well plates at a density of 2×10^4 cells/well overnight in a CO2 incubator at 37°C in the culture medium called Melanocyte Growth Medium (PromoCell, R.F.A.). The culture medium was then removed and replaced with fresh medium, and the cells were cultured for 96 hours in the presence of a mixture containing 0.0003% (w/w) of hydroxytyrosol, 0.00001% (w/w) of maslinic acid and 0.001% (w/w) of vitamin C. […] To mimic exposure to sunlight, the cells were irradiated with ultraviolet light for the last 48 hours in 4 cycles lasting 15 minutes. Irradiation measurements indicated a total dose of 2.5 J/cm2. Melanin was extracted by adding 1 M sodium hydroxide and incubating at 60°C for 1 h.
In parallel, a cell viability assay was carried out using 3-(4,5-dimethylthiazol-2-yl)-2,5-diphenyltetrazolium bromide dye (MTT Assay) to normalise melanin values to cell levels and thus correct possible interferences due to small variations in the number of cells in each well.

## Oc1ccc(O)cc1 [hydroquinone]
  reduction of melanin production: 42%
